The source of these data is BindingDB's records for doi:10.1021/jm00045a011 (Eisai, 1994).

This experiment has as its target Arachidonate 5-lipoxygenase (Homo sapiens). Put plainly: Tested for inhibitory activity against leukotriene B4 (LTB4) production in human neutrophils.

Structures are written as SMILES.

As usually defined, the IC50 is the concentration that gives 50% inhibition. Read a high IC50 as weaker potency in that assay.

Molecule `Cc1c(O)c(C)c2sc(NCc3ccc(S(N)(=O)=O)cc3)nc2c1C` [4-[(6-Hydroxy-4,5,7-trimethyl-benzothiazol-2-ylamino)-methyl]-benzenesulfonamide] came in with an IC50 of 30 nM.
